IC50 data for 25 compounds are collected here from US20030134859A1 (SANKYO COMPANY, LIMITED, priority 2000, published 2003).

In this test the target is T1, human PPAR γ 2 (Homo sapiens, UniProt P37231).
T1 construct: expressed in transfected cells; host or cells: human osteosarcoma MG63, transiently co-transfected with pSG5-hPPARg and the reporter pGV-P2-PPRE
T1 sequence (P37231 1-505): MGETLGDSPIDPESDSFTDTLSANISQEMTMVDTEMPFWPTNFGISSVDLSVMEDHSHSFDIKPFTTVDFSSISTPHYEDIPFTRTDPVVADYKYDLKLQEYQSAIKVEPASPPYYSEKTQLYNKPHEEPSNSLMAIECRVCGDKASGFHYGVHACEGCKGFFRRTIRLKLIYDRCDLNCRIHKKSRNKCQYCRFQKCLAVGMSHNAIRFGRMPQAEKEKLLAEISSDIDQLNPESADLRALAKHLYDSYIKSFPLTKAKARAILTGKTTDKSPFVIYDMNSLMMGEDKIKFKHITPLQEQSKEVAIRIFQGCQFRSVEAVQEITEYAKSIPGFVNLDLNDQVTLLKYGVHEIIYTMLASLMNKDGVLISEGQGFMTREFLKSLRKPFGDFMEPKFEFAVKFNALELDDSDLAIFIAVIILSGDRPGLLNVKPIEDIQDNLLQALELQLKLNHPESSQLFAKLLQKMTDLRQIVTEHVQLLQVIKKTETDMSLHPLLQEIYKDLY
The test is described as follows: Inhibitory activity against PPAR γ transcription in the presence of agonist compound A, luciferase reporter. It is filed as cell-based. As to conditions: in the presence of 10 nM compound A (agonist); MG63 cells transfected with pSG5-hPPARg and pGV-P2-PPRE; 24 hr.
On to `O=C(Nc1ccc(Cl)nn1)c1cc([N+](=O)[O-])ccc1Cl` [Example 89], for which the half-maximal inhibitory concentration (IC50) stood at 400 nM. To `Cc1nnc(NS(=O)(=O)c2ccc(NC(=O)c3cc([N+](=O)[O-])ccc3Cl)cc2)s1` [Example 101, N-[4-[(5-Methyl-[1,3,4]thiadiazol-2-yl)aminosulfonyl]phenyl]-(2-chloro-5-nitrophenyl)carboxamide] belongs 61 nM. To `Cc1noc(NS(=O)(=O)c2ccc(NC(=O)c3cc([N+](=O)[O-])ccc3Cl)cc2)c1C` [Example 104, N-[4-[(3,4-Dimethylisoxazol-6-yl)aminosulfonyl]phenyl]-(2-chloro-5-nitrophenyl)carboxamide] belongs 270 nM. To `CC(=O)Nc1ccc(-c2ccc(NC(=O)c3cc([N+](=O)[O-])ccc3Cl)cc2)cc1` [Example 118, N-[4-(4-Acetylaminophenyl)phenyl]-(2-chloro-5-nitrophenyl)carboxamide] belongs 8.6 nM; to `O=C(Nc1ccc(-c2ccc(NC(=O)c3cc([N+](=O)[O-])ccc3Cl)cc2)cc1)c1ccccc1` [Example 120, N-[4-(4-Benzoylaminophenyl)phenyl]-(2-chloro-5-nitrophenyl)carboxamide], 13 nM; to `O=C(Nc1ccc(-c2ccc(NC(=O)c3cc([N+](=O)[O-])ccc3Cl)cc2)cc1)c1cccnc1` [Example 124, N-[4-[4-(Pyridin-3-ylcarbonylamino)phenyl]phenyl]-(2-chloro-5-nitrophenyl)carboxamide], 8.1 nM. In the case of `O=C(Nc1ccc(-c2ccc(NC(=O)c3cc([N+](=O)[O-])ccc3Cl)cc2)cc1)c1ccncc1` [Example 126, N-[4-[4-(Pyridin-4-ylcarbonylamino)phenyl]phenyl]-(2-chloro-5-nitrophenyl)carboxamide], the half-maximal inhibitory concentration (IC50) amounted to 14 nM. On to `O=C(Nc1ccc(NS(=O)(=O)c2ccccc2)cc1)c1cc([N+](=O)[O-])ccc1Cl` [Example 127, N-(4-Benzenesulfonylaminophenyl)-(2-chloro-5-nitrophenyl)carboxamide], for which the half-inhibitory concentration (IC50) is 11 nM. As to `CCS(=O)(=O)Nc1ccc(-c2ccc(NC(=O)c3cc([N+](=O)[O-])ccc3Cl)cc2)cc1` [Example 130, N-[4-(4-Ethanesulfonylaminophenyl)phenyl]-(2-chloro-5-nitrophenyl)carboxamide], the IC50 was 11 nM. To `O=C(Nc1cnccn1)c1cc([N+](=O)[O-])ccc1Cl` [Example 140, N-(Pyrazin-2-yl)-(2-chloro-5-nitrophenyl)carboxamide] belongs 110 nM. To `O=C(Nc1ccc(S(=O)(=O)N2CCCCC2)cc1)c1cc([N+](=O)[O-])ccc1Cl` [Example 151, N-[4-(Piperidyisulfonyl)phenyl]-(2-chloro-5-nitrophenyl)carboxamide] belongs 12 nM; to `O=C(Nc1ccc(S(=O)(=O)N2CCOCC2)cc1)c1cc([N+](=O)[O-])ccc1Cl` [Example 153, N-[4-(Morpholin-4-ylsulfonyl)phenyl]-(2-chloro-5-nitrophenyl)carboxamide], 49 nM.

On to `CC(=O)c1ccc(NC(=O)c2cc([N+](=O)[O-])ccc2Cl)cc1` [Example 155, N-(4-Acetylphenyl)-(2-chloro-5-nitrophenyl)carboxamide], for which the IC50 turned out to be 9.8 nM. As for `CC(=O)c1cccc(NC(=O)c2cc([N+](=O)[O-])ccc2Cl)c1` [Example 156, N-(3-Acetylphenyl)-(2-chloro-5-nitrophenyl)carboxamide], the IC50 came to 100 nM. To `O=C(Nc1ccc(C(=O)N2CCCCC2)cc1)c1cc([N+](=O)[O-])ccc1Cl` [Example 159, N-[4-(Piperidylcarbonyl)phenyl]-(2-chloro-5-nitrophenyl)carboxamide] belongs 11 nM; to `O=C(Nc1ccc(-n2ccnc2)cc1)c1cc([N+](=O)[O-])ccc1Cl` [Example 174, N-[4-(Imidazol-1-yl)phenyl]-(2-chloro-5-nitrophenyl)carboxamide], 9.4 nM; to `CC(C)(C)c1cc(NS(=O)(=O)c2ccc(NC(=O)c3cc([N+](=O)[O-])ccc3Cl)cc2)cc(C(C)(C)C)c1O` [Example 175, N-[4-[(3,5-di-tert-Butyl-4-hydroxyphenyl)aminosulfonyl]phenyl]-(2-chloro-5-nitrophenyl)carboxamide], 99 nM. As for `O=C(Nc1ccc(-c2ccc(N3CCCCC3)cc2)cc1)c1cc([N+](=O)[O-])ccc1Cl` [Example 177, N-[4-[4-(Piperidin-1-yl)phenyl]phenyl]-(2-chloro-5-nitrophenyl)carboxamide], the IC50 amounted to 94 nM.

Take `CCCCCCN(CC)c1ccc(NC(=O)c2cc([N+](=O)[O-])ccc2Cl)cc1` [Example 188, N-[4-(N-Ethyl-N-hexylamino)phenyl]-(2-chloro-55 nitrophenyl)carboxamide]: the IC50 is 33 nM. To `CC(C)(C)OC(=O)Nc1ccc(-c2csc(NC(=O)c3cc([N+](=O)[O-])ccc3Cl)n2)cc1` [Example 190, N-[4-(4-tert-Butoxycarbonylaminophenyl)thiazol-2-yl]-(2-chloro-5-nitrophenyl)carboxamide] belongs 36 nM. To `CCCN(CCC)c1ccc(-c2ccc(NC(=O)c3cc([N+](=O)[O-])ccc3Cl)cc2)cc1` [Example 194, N-[4-[4-(N,N-Dipropylamino)phenyl]phenyl]-(2-chloro-5-nitrophenyl)carboxamide] belongs 330 nM; to “N-[3-(Pyrrolidinylsulfonyl)phenyl]-(2-chloro-5-nitrophenyl)carboxamide [Example 154]”, 81 nM. To “N-[4-(4-Methylbenzoylamino)phenyl]phenyl]-(2-chloro-5-nitrophenyl)carboxamide [Example 122]” belongs 7.6 nM; to “N-[4-(Benzenesulfonylaminophenyl)phenyl]-(2-chloro-5-nitrophenyl)carboxamide [Example 128]”, 35 nM. For “N-[4-[4-(Pyrrolidin-1-ylamino)phenyl]phenyl]-(2-chloro-5-nitrophenyl)carboxamide [Example 171]”, the IC50 amounted to 48 nM.
